# What was measured:
# [1] = target: SARS-CoV-2 Main Protease (SARS-CoV-2) (UniProt P0DTD1)
# [2] = target: SARS-CoV-2 Main Protease (SARS-CoV-2) (UniProt P0DTD1); remark: listed apart in the source
Compound,inhibition ([1]; 20.0 µM),inhibition ([2]; 20.0 µM),inhibition ([2]; 50.0 µM),relative solubility at 20 uM,relative solubility at 100 uM,IC50 [1],inhibition ([1]; 50.0 µM)
C=CC(=O)N(C1CCCC(C(C)C)CC1)C(C(=O)NC(C)(C)C)c1cccnc1 (centres undefined),0%,-1.08%,8.24%,0.99,0.95,–,–
CS(=O)(=O)N1CCN(C(=O)CCl)CC1c1ccccc1 (centres undefined),87.5%,64.6%,69.5%,1,1,3.31 µM,95.9%
COc1c(NC(=O)Cc2cccc(Cl)c2Cl)c(C)nn1C,–,2.78%,2.19%,1,1.01,–,0%
Cc1ccncc1NC(=O)CC(C)C(C)C (centres undefined),–,-5.58%,29.2%,1,1,–,6.99%
O=C1CC[C@H](C(=O)Nc2cccc(Br)c2)N1 (stereo in doubt),–,15%,5.83%,1,1,–,0%
Cc1nnc(NC(=O)Cc2cccc(Cl)c2F)n1C,–,-12.7%,-10.8%,1.01,1,–,0%
C=CC(=O)N(c1ccc(C2(C)CC2)cc1)C(C(=O)NC(C)(C)C)c1cccnc1 (centres undefined),0%,–,-13.5%,1,1,–,10.1%
Cc1cccc(CC(=O)Nc2cccnc2C#N)c1,0%,8.4%,-5.94%,1,1,–,–
O=C(Cc1cccc(Cl)c1)Nn1cnc2ccccc21,–,74.2%,87.7%,1,1,4.27 µM,45.3%
C=CC(=O)N(c1ccc(C(C)OC)cc1)C(C(=O)Nc1ccc(OC)cc1C)c1cccnc1 (centres undefined),0%,2.91%,6.9%,0.99,0.97,–,–
Cc1ccncc1NC(=O)Cn1ccc2ccc(Cl)cc21,–,30.6%,27%,0.99,0.98,20 µM,77.4%
C=CC(=O)N(c1ccc2ncsc2c1)C(C(=O)Nc1ccc(OC)cc1C)c1cccnc1 (centres undefined),0%,3.21%,11.3%,0.94,0.92,–,–
CC(C)c1ncncc1NC(=O)C(C)c1cccc(Cl)c1 (centres undefined),–,6.43%,19%,1.01,1,–,1.6%
CC(=O)NCCc1c[nH]c2c(CN3CCN(C(=O)CCl)CC3)cccc12,–,62.8%,85.7%,0.95,0.95,11.5 µM,100%
Cc1nn(-c2ccccc2)c(Nc2cccc(C(F)(F)F)c2)c1NS(C)(=O)=O,–,3.18%,-5.82%,0.95,0.97,–,-10.6%
Cc1ccncc1NS(=O)(=O)Cc1cccc(Cl)c1,–,4.3%,9.77%,1,0.99,–,19%
C=CC(=O)N(C(C(=O)NC(C)(C)C)c1cccnc1)[C@@H]1C[C@@H]1c1ccccc1 (stereo in doubt),0%,-14.4%,-6.46%,0.97,0.88,–,–
C=CC(=O)N(C1CCC2(CCCC2)CC1)C(C(=O)NC(C)(C)C)c1cccnc1 (centres undefined),0%,-5.6%,6.94%,1,0.97,–,–
Cc1ccc(NC2CCN(c3ccc(S(N)(=O)=O)cc3)CC2)cc1,28.4%,2.67%,5.62%,0.92,0.84,–,40%

Compound,inhibition ([1]; 20.0 µM),inhibition ([2]; 20.0 µM),inhibition ([2]; 50.0 µM),relative solubility at 20 uM,relative solubility at 100 uM,IC50 [1],inhibition ([1]; 50.0 µM)
C=CC(=O)N(c1ccc(S(F)(F)(F)(F)F)cc1)C(C(=O)Nc1ccc(OC)cc1C)c1cccnc1 (centres undefined),0%,5.52%,12.2%,0.92,0.75,–,–
Cc1ccncc1-c1nc(-c2cccc(Cl)c2)no1,–,3.58%,5.25%,1,0.99,–,22.9%
CC(=O)N1CCN(C(=O)Cc2ccccn2)CC1,0%,-0.517%,3.52%,1,1,–,0%
CS(=O)(=O)NCCc1ccccc1O,0%,–,14.4%,1,1,–,0%
COc1ccc(C(=O)Nc2cccc(/C=C3/C(=O)NC(=O)c4ccccc43)c2)cc1,–,-3.55%,-22.9%,0.48,0.54,–,34.2%
Cc1ccncc1NC(=O)Cc1cccc(Br)c1,–,56.2%,77.7%,1.01,1,15.9 µM,98.3%
Cc1cc(Br)cc2c1N(CCBr)C(=O)C2=O,–,-3.94%,-4.22%,1,1,16.7 µM,95.6%
C=CC(=O)Nc1cc(C(=O)NC[C@H](Cc2ccccc2)c2ccccn2)ccc1O (stereo in doubt),0%,0.684%,9.48%,0.83,0.82,–,–
CCCC(C(=O)Nc1cnccc1C)c1cccc(Cl)c1 (centres undefined),–,77.9%,90.6%,1,0.99,5.48 µM,78.3%
CC(CCc1ccccc1)N1CCN(C(=O)CCl)CC1 (centres undefined),62.6%,45%,60.7%,1,1,13.6 µM,91.1%
CN1CCC(C(=O)NC2CCCCC2NC(=O)C2CCCCC2)CC1 (centres undefined),0%,-19.4%,-19.4%,1,1.01,–,–
CNC(=O)OC1CCN(Cc2ccccc2)CC1,0.824%,–,17.6%,0.99,1,–,0%
Cc1ccncc1CC(=O)Nc1cccc(Cl)c1,–,42.2%,67.4%,1,1,26.4 µM,88.6%
Cc1cccc(NC(=O)C(C#N)C(=O)C2CCCC2)c1 (centres undefined),0.78%,–,-8.28%,1,1,–,0%
Cc1cnn(C)c1NC(=O)Cc1cccc(Cl)c1,–,3.11%,5.06%,0.99,0.99,–,23.1%
C=CC(=O)N(c1ccc(C(C)(C)C)cc1)C(C(=O)NCCOC)c1cccnc1 (centres undefined),25.7%,35.7%,52.7%,1,1,–,70.3%
N#Cc1ccc(O)c(NC(=O)Cc2cccnc2)c1,–,-15.4%,-8.48%,1,0.95,–,0%
COC(=O)c1sc(NS(=O)(=O)c2ccc(CF)cc2)nc1C(C)(C)C,0%,–,-7.77%,1,0.99,–,0%
CCOC(=O)[C@H]1O[C@@H]1C(=O)N[C@@H](CC(C)C)C(=O)NCCC(C)C (stereo in doubt),–,-1.54%,-5.21%,1,1,–,0%

# From the COVID Moonshot data (paper PMC11187573), “Identification of SARS-CoV-2 Mpro inhibitors through deep reinforcement learning for de novo drug design and computational chemistry approaches” (RSC Medicinal Chemistry, 2024)
